Experimental data from ChEMBL document CHEMBL3638626, “1,3,5-triazine-2-amine derivatives, preparation thereof and diagnostic and therapeutic use thereof” (2015).

Biological target: Cannabinoid receptor 2 (Homo sapiens, UniProt P34972)
Assay: Binding Assay: Affinity binding tests were performed according to the experimental conditions described by M. Rinaldi-Carmona in J. Pharmacol. Exp. Therap. 1998, 287, 644-650, with membranes derived either from rodent tissues or from recombinant cell lines in which the human CB2 receptors were expressed (Munro et al., Nature 1993, 365, 61-65). The affinity of the compounds is expressed in the form of the IC50 (concentration causing 50% inhibition of specific binding of the tritiated ligand used in vitro).

Cannabinoid receptor 2, sequence (P34972 whole entry): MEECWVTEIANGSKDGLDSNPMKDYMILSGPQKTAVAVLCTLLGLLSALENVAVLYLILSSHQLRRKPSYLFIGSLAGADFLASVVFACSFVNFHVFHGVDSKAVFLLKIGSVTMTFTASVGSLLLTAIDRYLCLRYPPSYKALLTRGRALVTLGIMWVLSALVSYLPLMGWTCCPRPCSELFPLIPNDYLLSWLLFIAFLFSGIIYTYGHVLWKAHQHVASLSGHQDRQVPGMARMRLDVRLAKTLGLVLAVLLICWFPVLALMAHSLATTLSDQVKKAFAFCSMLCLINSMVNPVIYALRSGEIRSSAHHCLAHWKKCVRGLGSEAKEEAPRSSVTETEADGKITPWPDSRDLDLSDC

Row | Compound | IC50 [nM]
1 | COc1cccc(-c2nc(NCCc3ccc(F)cc3)nc(OC)n2)c1 | 29
2 | COc1nc(NCCc2ccc(F)cc2)nc(-c2ccc(OC)c(S(=O)(=O)NC3CC3)c2)n1 | 12
3 | COc1nc(NCCc2ccc(F)cc2)nc(-c2cc3c(Cl)cccc3[nH]2)n1 | 7
4 | COc1nc(NCCc2ccc(F)cc2)nc(-c2cc3cc(F)ccc3[nH]2)n1 | 12
5 | COc1nc(NCCc2ccc(OC(F)F)cc2)nc(-c2ccc(Cl)c(C(C)(C)O)c2)n1 | 1.2
6 | COc1nc(NCCc2ccc(F)cc2)nc(-c2cccc(C(C)(C)O)c2)n1 | 9
7 | COc1nc(NCCc2ccc(F)cc2)nc(-c2ccc(OC)c(C(C)(C)O)c2)n1 | 1
8 | COc1nc(NCCc2ccc(F)cc2)nc(-c2ccc(Cl)c(O)c2)n1 | 21
9 | CCOC(=O)COc1cc(-c2nc(NCCc3ccc(F)cc3)nc(OC)n2)ccc1Cl | 10
10 | COc1nc(NCCc2ccc(OC(F)F)cc2)nc(-c2ccc(Cl)c(OCCCNS(C)(=O)=O)c2)n1 | 41
11 | COc1nc(NCCc2ccc(OCF)cc2)nc(-c2ccc(Cl)c(C(C)(C)O)c2)n1 | 3.9
12 | COc1nc(NCCc2ccc(F)cc2)nc(-c2ccc(Cl)c(OCC(N)=O)c2)n1 | 1
